According to patent EP0318860B1, “Substituted alkylamine derivatives” (BANYU PHARMACEUTICAL CO., LTD., priority 1987, dated 1989):
pIC50: −log10 of the molar value. ≈ marks a conversion by molar mass, not a printed value. Structures can show the parent of a compound that is named as a salt. Where two headings read alike, the source gives them in different places.

Experiments:
rat squalene epoxidase = target: T1, rat squalene epoxidase (Rattus norvegicus, UniProt P52020); assay: Squalene epoxidase inhibiting activity (3H-squalene to squalene-2,3-epoxide, solubilized liver microsome fraction); assay type: biochemical; conditions: 8 µM 3H-squalene, 37 °C, 30 minutes, read-out: 50 % inhibitory concentration (IC50)
T1 construct: Livers were extracted and homogenized; from tissue; host or cells: liver of SD-strain female rats; microsomes solubilized with 2 % Triton X-100, 105000 x g supernatant
T1 sequence (P52020 whole entry): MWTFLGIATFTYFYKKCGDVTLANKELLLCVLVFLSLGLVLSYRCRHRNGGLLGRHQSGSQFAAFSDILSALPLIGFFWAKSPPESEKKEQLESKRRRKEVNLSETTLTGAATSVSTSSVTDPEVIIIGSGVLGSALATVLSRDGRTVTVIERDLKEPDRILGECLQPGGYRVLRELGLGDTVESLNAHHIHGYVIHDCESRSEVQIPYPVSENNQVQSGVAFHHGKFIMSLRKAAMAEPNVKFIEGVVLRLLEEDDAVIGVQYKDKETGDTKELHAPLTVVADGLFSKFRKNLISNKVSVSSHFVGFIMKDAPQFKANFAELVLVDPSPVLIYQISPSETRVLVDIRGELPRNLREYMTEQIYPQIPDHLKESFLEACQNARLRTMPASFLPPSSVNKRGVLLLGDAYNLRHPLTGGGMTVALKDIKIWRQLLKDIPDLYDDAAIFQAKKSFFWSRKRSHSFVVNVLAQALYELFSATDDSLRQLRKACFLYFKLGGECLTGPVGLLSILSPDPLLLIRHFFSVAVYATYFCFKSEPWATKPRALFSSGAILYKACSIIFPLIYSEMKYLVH
Protocol: The rat squalene epoxidase was prepared by the method described in J. Biol. Chem., vol.
SD-strain female rats were killed by exsanguination. Livers were extracted and homogenized with in the presence of 2 volumes of 0.1M Tris-HCl buffer (pH 7.5). The homogenate was centrifuged at 9750 Xg for 10 minutes. The supernatant fraction was further centrifuged at 105000 Xg for 1 hour. The sediment was washed with 0.1M Tris-HCl buffer (pH 7.5), and then centrifuged at 105000 Xg for 1 hour. The microsomes obtained were suspended in 0.1M Tris-HCl buffer (pH 7.5) so that the amount of proteins was 40 mg/ml, and under ice cooling, the suspension was stirred in the presence of 2 % Triton X-100 to solubilize the enzyme. After the solubilization, the solution was diluted to a Triton X-100 concentration of 0.5 % with 1 mM EDTA and 1 mM dithiothreitol, and centrifuged at 105000 Xg for 1 hour. The resulting supernatant fraction was used in the following test as a squalene epoxidase fraction.
The squalene epoxidase activity was assayed in accordance with the method described in J. Biol. Chem., vol.
Three microliters of a dimethyl sulfoxide solution of a test drug was added to a solution composed of 0.2 ml of the squalene epoxidase fraction prepared in (1) [proteins 0.4 mg, 0.5 % Triton X-100, […] Tris-HCl buffer (pH 7.5)], 100 µM FAD, 1 mM NADPH, 1 mM EDTA and 8 µM ³H-squalene-Tween 80 emulsion to adjust the total amount of the solution to 0.3 ml. The solution was incubated at 37 °C for 30 minutes with shaking. Then, 0.3 ml of a 10 % methanolic potassium hydroxide was added to stop the reaction, and the reaction mixture was left to stand at room temperature for 1 hour. The non-saponified material was extracted with petroleum ether, and the solvent was evaporated under a nitrogen stream. […] The position of the resulting ³H-squalene-2,3-epoxide on TLC was determined using ergosterol acetate as a marker, and the ³H-squalene-2,3-epoxide portion on the TLC was cut off. The TLC strip was immersed in a toluene-type scintillator, and measured by a liquid scintillation counter.

Candida albicans = assay: Antimycotic activity test (Sabouraud's agar dilution, MIC); assay type: cell-based; conditions: 48 h
Protocol: (§1) Each of the test fungi was cultured (Candida albicans was cultured overnight in Sabouraud broth; Trichophyton was inoculated in Sabouraud's agar and cultured for 2 days, after which the spores were harvested). Thereafter, one platinum loopful of Candida albicans or Trichophyton (10⁶ cells/ml for C. albicans; 10⁶ spores/ml for Trichophyton) was inoculated in Sabouraud's agar containing the test drug in various concentrations, and cultured (at 37 °C for 2 days for C. albicans; at 28 °C for 5 days for Trichophyton). Then, the minimum growth inhibition concentration (MIC) was measured. […]

Trichophyton = assay: as above; assay type: cell-based; conditions: 120 h
Protocol: as §1

[1] = system: cholesterol biosynthesis in the cultured Hep-G2 cells; assay: Inhibitory activity on cholesterol biosynthesis in cultured cells ([14C] acetate incorporation); assay type: cell-based; conditions: HepG2; Human hepatoma (Hep-G2) cells, [14C] sodium acetate, 6 hours; read-out: 50% inhibitory concentration (IC₅₀)
Protocol: Human hepatoma (Hep-G2) cells were cultured in 10 cm² dishes until they formed a monolayer. One milliliter of the culture medium was replaced, and 1 µCi of [¹⁴C] sodium acetate and 1 microliter of a dimethyl sulfoxide solution of a test drug were added, and the cells were cultured at 37 °C in air containing 5 % of carbon dioxide for 6 hours.
After the cultivation, the medium was aspirated, and the cells were cooled with ice, and washed with Dulbecco's phosphate buffered saline solution. The resulting cells were scraped by a rubber policeman, and collected by centrifugation. The cells collected were dissolved in 400 microliters of 0.3N sodium hydroxide. A 200 microliters aliquot of the solution was used for extraction, and the remainder, for protein determination.
To 200 microliters of the extracted cells, 15 % ethanolic potassium hydroxide was added, and saponification was carried out at 75 °C for 1 hour. Water (1 ml) was then added, and the mixture was extracted with 2 ml of petroleum ether twice to remove non-saponified materials. The petroleum ether extracts were washed with 1 ml of water, and evaporated under a nitrogen stream. The residue was spotted on a pre-coated silica gel TLC plate using a small amount of chloroform, and developed with hexane/ethyl ether/acetic acid (85:15:4). Cholesterol and squalene portions on the TLC were detected with iodine, and the corresponding TLC portions were cut out. The TLC strips were immersed in a toluene-type scintillator, and radioactivity was counted by a liquid scintillation counter. The results were corrected by the amount of proteins measured by the method described in J. Biol. Chem., vol. 193, page 265, 1951. The 50 % inhibitory concentration (IC₅₀ value) of the compound of the invention on cholesterol biosynthesis in the cultured Hep-G2 cells was calculated.

[2] = C. albicans, 37 °C for 2 days, read-out: MIC
[3] = 28 °C for 5 days, read-out: MIC

Compound | pIC50 (rat squalene epoxidase) | other results
CN(C/C=C/C#CC(C)(C)C)Cc1cccc(OCc2cccc3ccccc23)c1 [Compound 18, (E)-N-(6,6-dimethyl-2-hepten-4-ynyl)-N-methyl-3-(1-naphthylmethyloxy)benzylamine] | 6.60 | MIC (Candida albicans; [2]): > 100 µg/mL; MIC (Trichophyton; [3]): > 100 µg/mL
CCCN(C/C=C/C#CC(C)(C)C)Cc1cccc(OCc2ccccc2)c1 [Compound 37, (E)-N-(6,6-dimethyl-2-hepten-4-ynyl)-N-propyl-3-benzyloxybenzylamine] | 6.57 | pIC50 [1]: 7.07
Cc1ccccc1CNc1cccc(CN(C)C/C=C/C#CC(C)(C)C)c1 [Compound 103, (E)-N-(6,6-dimethyl-2-hepten-4-ynyl)-N-methyl-3-(2-methylbenzylamino)benzylamine hydrochloride] | 6.44 | pIC50 [1]: 6.35
CN(C/C=C/C#CC(C)(C)C)Cc1cccc(OCc2cccc(-c3cncs3)c2)c1 [Compound 79, (E)-N-(6,6-dimethyl-2-hepten-4-ynyl)-N-methyl-3-[3-(5-thiazolyl)benzyloxy]benzylamine] | 7.05 | pIC50 [1]: 7.64
CN(C/C=C/C#CC(C)(C)C)Cc1cccc(OCc2ccccc2)c1.Cl [Compound 2, (E)-N-(6,6-dimethyl-2-hepten-4-ynyl)-N-methyl-3-benzyloxybenzylamine hydrochloride] | 5.85 | pIC50 [1]: 5.82; MIC (Candida albicans; [2]): > 100 µg/mL; MIC (Trichophyton; [3]): > 100 µg/mL
CCN(C/C=C/C#CC(C)(C)C)Cc1cccc(OCc2cccc(C#N)c2)c1 [Compound 46, (E)-N-(6,6-dimethyl-2-hepten-4-ynyl)-N-ethyl-3-(3-cyanobenzyloxy)benzylamine] | 6.82 | pIC50 [1]: 6.96
CCCN(C/C=C/C#CC(C)(C)C)Cc1cccc(OCc2cccc(C#N)c2)c1 [Compound 47, (E)-N-(6,6-dimethyl-2-hepten-4-ynyl)-N-propyl-3-(3-cyanobenzyloxy)benzylamine hydrochloride] | 6.82 | pIC50 [1]: 7.05
CN(C/C=C/C#CC(C)(C)C)Cc1cccc(/C=C/c2ccccc2)c1.Cl [Compound 97, N-[(E)-6,6-dimethyl-2-hepten-4-ynyl]-N-methyl-3-[(E)-styryl]benzylamine hydrochloride] | 6.49 | MIC (Candida albicans; [2]): > 100 µg/mL; MIC (Trichophyton; [3]): > 100 µg/mL
CN(C/C=C/C#CC(C)(C)C)Cc1cccc2ccccc12 [terbinafine, reference compound] | < 4.00 | MIC (Candida albicans): 0.3 µg/mL (≈ 1.03 µM); MIC (Trichophyton): < 0.01 µg/mL
CN(C/C=C/C#CC(C)(C)C)Cc1cccc(CCc2ccccc2)c1 [Compound 107, (E)-N-(6,6-dimethyl-2-hepten-4-ynyl)-N-methyl-3-(beta-phenethyl)benzylamine] | 5.44 | MIC (Candida albicans; [2]): > 100 µg/mL; MIC (Trichophyton; [3]): > 100 µg/mL
CC(C)=CCOc1cccc(CN(C)C/C=C/C#CC(C)(C)C)c1 [Compound 61, (E)-N-(6,6-dimethyl-2-hepten-4-ynyl)-N-methyl-3-(3-methyl-2-butenyloxy)benzylamine] | 5.21 | MIC (Candida albicans; [2]): > 100 µg/mL; MIC (Trichophyton; [3]): > 100 µg/mL
CN(C/C=C/C#CC(C)(C)C)Cc1cc(OCc2ccccc2)ccn1.Cl.Cl [Compound 110, (E)-N-(6,6-dimethyl-2-hepten-4-ynyl)-N-methyl-4-benzyloxy-2-pyridylmethylamine dihydrochloride] | 5.82 | MIC (Candida albicans; [2]): > 100 µg/mL; MIC (Trichophyton; [3]): > 100 µg/mL
CC(C)=CCc1cccc(COc2cccc(CN(C)C/C=C/C#CC(C)(C)C)c2)c1 [Compound 72, (E)-N-(6,6-dimethyl-2-hepten-4-ynyl)-N-methyl-3-[3-(3-methyl-2-butenyl)benzyloxy]benzylamine] | 5.01 | –
CN(C/C=C/C#CC(C)(C)C)Cc1cccc(OCc2cccc(-c3cnco3)c2)c1 [Compound 78, (E)-N-(6,6-dimethyl-2-hepten-4-ynyl)-N-methyl-3-[3-(5-oxazolyl)benzyloxy]benzylamine] | 7.20 | pIC50 [1]: 7.70
CC(C)(C)C#C/C=C/CNCc1cccc(OCc2ccccc2)c1 [Compound 1, (E)-N-(6,6-dimethyl-2-hepten-4-ynyl)-3-benzyloxybenzylamine] | 5.17 | –
Cc1cccc(COc2cccc(CN(C)C/C=C/C#CC(C)(C)C)c2)c1 [Compound 53, (E)-N-(6,6-dimethyl-2-hepten-4-ynyl)-N-methyl-3-(3-methylbenzyloxy)benzylamine] | 6.18 | –
CN(C/C=C/C#CC(C)(C)C)Cc1ccc(F)c(OCc2ccccc2)c1 [Compound 49, (E)-N-(6,6-dimethyl-2-hepten-4-ynyl)-N-methyl-3-benzyloxy-4-fluorobenzylamine] | 5.31 | –
CCN(C/C=C/C#CC(C)(C)C)Cc1cccc(OCc2ccccc2)c1 [Compound 36, (E)-N-(6,6-dimethyl-2-hepten-4-ynyl)-N-ethyl-3-benzyloxybenzylamine hydrochloride] | 6.52 | pIC50 [1]: 7.19
CC(C)=C(C)COc1cccc(CN(C)C/C=C/C#CC(C)(C)C)c1 [Compound 92, (E)-N-(6,6-dimethyl-2-hepten-4-ynyl)-N-methyl-3-(2,3-dimethyl-2-butenyloxy)benzylamine] | 5.48 | –
C=C(C)c1cccc(COc2cccc(CN(C)C/C=C/C#CC(C)(C)C)c2)c1 [Compound 69, (E)-N-(6,6-dimethyl-2-hepten-4-ynyl)-N-methyl-3-(3-isopropenylbenzyloxy)benzylamine] | 6.29 | –
C=CCN(C/C=C/C#CC(C)(C)C)Cc1cccc(OCc2ccccc2)c1 [Compound 41, (E)-N-allyl-N-(6,6-dimethyl-2-hepten-4-ynyl)-3-benzyloxybenzylamine] | 5.68 | –
CN(C/C=C/C#CC(C)(C)C)Cc1cccc(C#Cc2ccccc2)c1 [Compound 101, (E)-N-(6,6-dimethyl-2-hepten-4-ynyl)-N-methyl-3-(2-phenylethynyl)benzylamine] | 5.68 | –
CN(C/C=C/C#CC(C)(C)C)Cc1cccc(OCc2cccc(O)c2)c1 [Compound 65, (E)-N-(6,6-dimethyl-2-hepten-4-ynyl)-N-methyl-3-(3-hydroxybenzyloxy)benzylamine] | 5.34 | –
CN(C/C=C/C#CC(C)(C)C)Cc1cccc(OCc2cccc(Cl)c2)c1 [Compound 8, (E)-N-(6,6-dimethyl-2-hepten-4-ynyl)-N-methyl-3-(3-chlorobenzyloxy)benzylamine] | 5.54 | –
CN(C/C=C/c1ccccc1)Cc1cccc2ccccc12 [naftifine, reference compound] | < 4.00 | –
CCN(C/C=C/C#CC(C)(C)C)Cc1cccc(OCc2cccc(-n3cccc3)c2)c1 [Compound 119, (E)-N-(6,6-dimethyl-2-hepten-4-ynyl)-N-ethyl-3-[3-(1-pyrrolyl)benzyloxy]benzylamine] | 8.15 | –
COc1ccc(COc2cccc(CN(C)C/C=C/C#CC(C)(C)C)c2)cc1 [Compound 12, (E)-N-(6,6-dimethyl-2-hepten-4-ynyl)-N-methyl-3-(4-methoxybenzyloxy)benzylamine] | 5.22 | –
